The text below walks through data of the METLIN SMRT retention time set (Domingo-Almenara et al. 2019).

Structures are written as SMILES.

The nature of this series: gradient 5% acetonitrile 3 min, to 50% in 2 min, to 85% in 15 min, held 3 min, 100 µL/min. The note with it: column: Zorbax Extend-C18 2.1 x 50 mm; eluents: water / acetonitrile, 0.1% formic acid. The essentials: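 Each retention time is based on an adduct peak selected computationally and verified by manual inspection. Measurements used HPLC–quadrupole time-of-flight mass spectrometry in positive and negative ionization mode on mixtures of ~100 pure standards. Chromatography ran on a Zorbax Extend-C18 column (2.1 × 50 mm, 1.8 μm) at 100 μL/min with water and acetonitrile, each containing 0.1% formic acid, and dead and dwell volumes of 40 μL and 900 μL.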
Compound `COc1cccc(-c2nc3ccc(Cl)cn3c2Nc2ccc(Cl)cc2)c1` returned an RP-LC retention time of 873 s.
With `CCCN1C(=O)COc2ccc(-c3noc(-c4ccn(CC)n4)n3)cc21` the figure was 956 s.
With `O=C(CCNc1c(-c2ccccc2)nc2cnccn12)NCC1CCCO1` (stereo not given) the figure was 576 s; with `COc1ccccc1-n1ccnc(NC(=O)Nc2ccc(F)cc2)c1=O`, 896 s; with `Cc1ccc(CNC(=O)Cn2ccc3ccc(-c4nnc(C)o4)cc32)cc1`, 798 s.
Turning to `Cc1ccc(CNC(=O)c2nnc(-c3ccc(S(=O)(=O)N(C)C)cc3)o2)o1`, the RP-LC retention time is 826 s.
For the compound `O=C(NC1CCN(c2ccc(F)cc2)C1=O)c1ccccc1C(F)(F)F` (stereo not given), the RP-LC retention time stood at 823 s.
In turn, `CC(=O)N1CCc2cc(C)c(S(=O)(=O)N3CCN(C)CC3)cc21` came in with an RP-LC retention time of 585 s.
With `COCCCn1c(=O)c2ccccc2n(Cc2nc(-c3ccc4c(c3)OCO4)no2)c1=O` the figure was 954 s; with `CCCN1CCN(C(=O)CC(c2ccc(C)cc2)N2Cc3ccccc3C2=O)CC1` (stereo not given), 666 s.
With `COc1ccc(NC(=O)NCCc2cn(C)c3ncccc23)cc1` the figure was 633 s; with `O=C(Nc1cccc(Cl)c1)c1cn(-c2cc(N3CCCC3)ncn2)cn1`, 906 s.
In the case of `O=C(C1CC1)N1CCc2sc(S(=O)(=O)Nc3ccccc3Br)cc2C1`, the RP-LC retention time stood at 858 s.
With `CN(C)c1ccc(-c2nc3cnccn3c2Nc2ccccc2)cc1` the figure was 745 s; with `C=CCN(CC=C)S(=O)(=O)c1ccc(C(=O)N2CCc3ccccc3C2)cc1`, 940 s.
As to `O=C(Cn1cnc(-c2nc(-c3ccccc3)cs2)c1)Nc1ccccc1`, the RP-LC retention time amounted to 819 s.
With `Cc1cc(C)c2c(N3CCSCC3)nc(C(=O)N(C)Cc3ccccc3)nc2n1` the figure was 682 s.
With `COc1ccc(NC(=O)c2cccn2Cc2noc(C)n2)cc1Cl` the figure was 859 s; with `CN1CCN(S(=O)(=O)c2ccc3nn(CCc4ccccc4)c(=O)n3c2)CC1`, 627 s; with `CCSc1nnc(NC(=O)C2CCN(S(=O)(=O)c3ccc4c(c3)sc(=O)n4C)CC2)s1`, 862 s.
`COCCNc1oc(-c2ccc([N+](=O)[O-])cc2)nc1C#N` displayed an RP-LC retention time of 766 s.
With `CC1CCN(S(=O)(=O)c2ccc3nn(C)c(=O)n3c2)CC1` the figure was 744 s; with `Cc1ccc(-c2csc(NC(=O)CSc3nc4c(cc3C#N)CN(C(C)C)CC4)n2)cc1`, 741 s.
`COc1ccc(OC)c(S(=O)(=O)N2CCCC(C(=O)Nc3cccc(SC)c3)C2)c1` (stereo not given) had an RP-LC retention time of 972 s.
Take `CCN1C(=O)C2CC3(CCN(C(=O)Nc4ccc5c(c4)OCCO5)CC3)CN2C1=O` (stereo not given): the RP-LC retention time amounted to 706 s.
In the case of `Oc1c(C(c2ccc(F)cc2)N2CCN(c3cccc(Cl)c3)CC2)sc2ncnn12` (stereo not given), the RP-LC retention time is 852 s.
With `CCc1ccccc1NC(=O)N(C)CC1CCOCC1` the figure was 730 s.
With `CCCn1cc(S(=O)(=O)NCc2ccc(F)cc2)c2cccnc21` the figure was 912 s.
For the compound `O=C(O)c1cccc(Nc2c(-c3ccc(N4CCOCC4)cc3)nc3cnccn23)c1`, the RP-LC retention time was 648 s.
With `O=C(Nc1ccc2c(c1)OCCO2)C1CCCN(C(=O)c2cc(-c3ccccn3)n[nH]2)C1` (stereo not given) the figure was 656 s; with `CC(=O)C1=C(C)N(Cc2ccccc2)C(=O)C1(NC(=O)C1CCCCC1)C(F)(F)F` (stereo not given), 1020 s.
With `COc1ccc(S(=O)(=O)N2CCCC(C(=O)Nc3ccc(F)cc3)C2)cc1OC` (stereo not given) the figure was 831 s; with `COc1ccc(NC(=O)CSc2nccc(N3CCN(c4cc(C)ccc4C)CC3)n2)cc1Cl`, 936 s.
Compound `CSc1ccc(CNC(=O)c2cc3c(=O)n(Cc4ccccc4)ccc3nc2C)cc1` returned an RP-LC retention time of 870 s.
As to `CC(C)c1nnc(NC(=O)C2CC(=O)N(CCc3c[nH]c4ccc(F)cc34)C2)s1` (stereo not given), the RP-LC retention time came out at 746 s.
`Cc1csc(C(=O)NCCC(O)C(C)(C)C)c1` (stereo not given) gave an RP-LC retention time of 718 s.
As to `O=C(O)CCCNS(=O)(=O)c1ccc2ccccc2c1`, the RP-LC retention time came to 717 s.
With `Cc1cccc(S(=O)(=O)Nc2ccc3c(c2)CCC(=O)N3CC(C)C)c1` the figure was 896 s; with `Cc1ccc(Cc2noc(CN3CCCC3=O)n2)cc1`, 758 s.
In the case of `CC(C)c1nc(C2CN(C(=O)Nc3ccc(F)cc3)C2)n(C)n1`, the RP-LC retention time was 672 s.
With `CC(C)CN1C(=O)c2cccn2CC1C(=O)NCCN1CCOCC1` (stereo not given) the figure was 568 s; with `CC(=O)Nc1nsc(N2CCC(C(=O)NCc3cc(F)cc(F)c3)CC2)n1`, 661 s; with `O=C(NCCN1CCCCC1)C1CCc2sc(C(=O)N3CCOCC3)cc2C1` (stereo not given), 581 s.
The compound `COc1ccc(-c2nc3ccc(Cl)cn3c2Nc2ccc3c(c2)OCO3)cc1` had an RP-LC retention time of 748 s.
With `Cc1ccc(F)cc1S(=O)(=O)Nc1cccn2c(C3CCC3)nnc12` the figure was 817 s; with `Cc1ccc(Nc2c(-c3ccc(C)cc3)nc3ccc(Br)cn23)cc1`, 849 s; with `CCOC(=O)c1oc2ccc(S(=O)(=O)N3CCC(c4noc(C5CC5)n4)C3)cc2c1C` (stereo not given), 1000 s.
`Cc1cccc(NC(=O)CC2COc3ccccc3NC2=O)c1C` (stereo not given) returned an RP-LC retention time of 736 s.
With `O=C(CN1CCN(Cc2ccccc2)C(=O)C1=O)N1CCN(c2cccc(Cl)c2)CC1` the figure was 828 s; with `O=C(Cn1ccn2nc(-c3ccccc3)c(CO)c2c1=O)Nc1ccccc1C(F)(F)F`, 830 s.
On to `CC1CN=C2C=C(N3CCN(C(=O)Nc4ccc(C(F)(F)F)cc4)CC3)N=CN21` (stereo not given), for which the RP-LC retention time came to 688 s.
With `Cc1ccc(-c2noc(Cn3ccn(-c4ccccc4)c(=O)c3=O)n2)cc1C` the figure was 897 s.
Turning to `O=C(NCC1CC(=O)N(c2ccc3c(c2)OCO3)C1)C1CC1` (stereo not given), the RP-LC retention time turned out to be 606 s.
`CCOC(=O)c1c(C)n(-c2ccc(OC)cc2)c2ccc(OCC(N)=O)cc12` registered an RP-LC retention time of 909 s.
`COCCCNc1c(-c2ccc(F)cc2)nc2sc(C(=O)N3CCOCC3)c(C)n12` gave an RP-LC retention time of 741 s.
With `COCCN1C(=O)CCc2cc(NS(=O)(=O)c3ccc(OC)c(OC)c3)ccc21` the figure was 569 s; with `Cn1ncc2c3ccccc3n(CC(=O)NCCc3cccs3)c2c1=O`, 784 s.
With `COc1ccc(-c2nc(C3CC(=O)N(c4ccc(F)cc4)C3)no2)c(OC)c1` (stereo not given) the figure was 898 s; with `CN(CC(=O)NC1CCCC1)S(=O)(=O)c1c[nH]c(C(=O)N2CCCC2)c1`, 686 s; with `Cc1nc(NC(=O)C2CC(=O)N(c3n[nH]c4cccc(F)c34)C2)sc1C` (stereo not given), 688 s.
`COc1cccc(CNC(=O)Nc2cccc(-c3ccc(N4CCOCC4)nn3)c2)c1` yielded an RP-LC retention time of 670 s.
Compound `O=C(NCc1ccccn1)c1ccc2ncnc(N3CCCCC3)c2c1` gave an RP-LC retention time of 551 s.
With `O=C(Nc1ccc2c(c1)OCCO2)Nc1ccc2nc3n(c(=O)c2c1)CCC3` the figure was 654 s; with `Cc1ccc(NC(=O)CSc2ccc(N3CCCC(C(=O)NC4CC4)C3)nn2)cc1C` (stereo not given), 628 s; with `Cc1ccc(C)c(Nc2nc(-c3ccccc3)cs2)c1`, 1200 s.
`COc1ccc(NC(=O)Nc2c(-c3ccncc3)[nH]c3ccc(F)cc23)c(OC)c1`: the RP-LC retention time turned out to be 683 s.
Consider `CC(NC(=O)CCc1ccccc1)C(=O)Nc1nc2ccccc2[nH]1` (stereo not given), for which the RP-LC retention time came to 654 s.
Regarding `O=C(Nc1cccc2nsnc12)C1CCN(S(=O)(=O)N2CCCC2)CC1`, the RP-LC retention time amounted to 862 s.
The compound `O=C(N1CCC(n2nc(-c3ccsc3)ccc2=O)CC1)C1(c2ccccc2)CC1` had an RP-LC retention time of 869 s.
With `CCc1nnc(-c2ccc3ccn(CC(=O)Nc4ccc(NC(C)=O)cc4)c3c2)o1` the figure was 703 s; with `CCOc1cccc(-c2noc(CCn3nc(-c4ccc(Cl)cc4)ccc3=O)n2)c1`, 1130 s; with `CC1=C(c2ccc(C(C)C)cc2)S(=O)(=O)N=C1N1CCC(C(=O)NCC2CCCO2)CC1` (stereo not given), 820 s.
With `Cc1ccc(-c2nnc(-c3nn(C)c4c3CN(S(=O)(=O)c3cccc(F)c3)CC4)o2)cc1` the figure was 999 s; with `CC(C)CCC(=O)N1CCC2(CC1)N(C)C(=O)CS2(=O)=O`, 644 s.
With `Cc1ccc(-c2cn3cc(C(=O)NC(C)c4cccnc4)ccc3n2)cc1C` (stereo not given) the figure was 585 s.
For the compound `O=C(CCCc1ccccc1)NC1CCN(c2nnc3ccc(Cl)cn23)CC1`, the RP-LC retention time was 639 s.
In turn, `O=C(CCSc1ccccc1)NCC(O)c1cccc2ccccc12` (stereo not given) displayed an RP-LC retention time of 841 s.
The compound `COc1ccccc1NC(=O)N1CCCC1c1nc(-c2ccccc2C)no1` (stereo not given) had an RP-LC retention time of 1080 s.
With `CC(C)NC(=O)c1nnn(-c2ccccc2)c1-c1cccnc1` the figure was 713 s.
In the case of `COc1ccc(-c2nc(Cn3ccn4nc(-c5ccccc5)cc4c3=O)c(C)o2)cc1`, the RP-LC retention time is 1100 s.
